Data from patent US6916933B2, “4-pyridinyl-n-acyl-l-phenylalanines” (Hoffman-La Roche Inc., priority 1999, dated 2005).

Target: T1, alpha4-beta7 on RPMI 8866 cells binding to MadCAM (Homo sapiens, UniProt P13612+P26010)
T1 construct: endogenous in cells; host or cells: RPMI 8866 cells
T1 sequence (P13612 34-1032): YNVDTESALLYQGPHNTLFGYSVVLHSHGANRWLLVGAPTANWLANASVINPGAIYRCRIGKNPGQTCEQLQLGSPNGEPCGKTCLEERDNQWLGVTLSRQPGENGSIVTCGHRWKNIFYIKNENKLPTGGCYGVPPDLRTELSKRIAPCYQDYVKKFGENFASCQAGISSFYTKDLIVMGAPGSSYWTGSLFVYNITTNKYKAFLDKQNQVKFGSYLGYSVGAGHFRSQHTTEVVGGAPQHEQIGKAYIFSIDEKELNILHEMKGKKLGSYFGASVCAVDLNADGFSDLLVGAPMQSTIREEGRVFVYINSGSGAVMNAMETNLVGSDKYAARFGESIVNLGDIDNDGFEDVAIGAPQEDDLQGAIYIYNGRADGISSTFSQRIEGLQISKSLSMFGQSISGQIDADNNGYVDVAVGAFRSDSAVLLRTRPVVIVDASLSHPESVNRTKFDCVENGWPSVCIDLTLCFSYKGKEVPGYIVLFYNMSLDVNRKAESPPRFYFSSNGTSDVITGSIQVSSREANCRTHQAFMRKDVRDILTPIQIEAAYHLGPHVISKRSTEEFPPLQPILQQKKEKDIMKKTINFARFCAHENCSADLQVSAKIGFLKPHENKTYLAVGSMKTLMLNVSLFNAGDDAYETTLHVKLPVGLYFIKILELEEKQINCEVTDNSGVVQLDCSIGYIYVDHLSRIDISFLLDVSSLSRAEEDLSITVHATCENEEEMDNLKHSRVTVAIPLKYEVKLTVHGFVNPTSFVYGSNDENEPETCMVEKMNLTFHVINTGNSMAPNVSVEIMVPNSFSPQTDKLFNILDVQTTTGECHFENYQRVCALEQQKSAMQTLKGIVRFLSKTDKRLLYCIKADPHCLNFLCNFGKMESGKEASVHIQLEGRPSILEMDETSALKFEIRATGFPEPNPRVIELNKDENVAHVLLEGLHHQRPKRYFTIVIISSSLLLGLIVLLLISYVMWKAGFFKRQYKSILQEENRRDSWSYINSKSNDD
T1 sequence (P26010 20-798): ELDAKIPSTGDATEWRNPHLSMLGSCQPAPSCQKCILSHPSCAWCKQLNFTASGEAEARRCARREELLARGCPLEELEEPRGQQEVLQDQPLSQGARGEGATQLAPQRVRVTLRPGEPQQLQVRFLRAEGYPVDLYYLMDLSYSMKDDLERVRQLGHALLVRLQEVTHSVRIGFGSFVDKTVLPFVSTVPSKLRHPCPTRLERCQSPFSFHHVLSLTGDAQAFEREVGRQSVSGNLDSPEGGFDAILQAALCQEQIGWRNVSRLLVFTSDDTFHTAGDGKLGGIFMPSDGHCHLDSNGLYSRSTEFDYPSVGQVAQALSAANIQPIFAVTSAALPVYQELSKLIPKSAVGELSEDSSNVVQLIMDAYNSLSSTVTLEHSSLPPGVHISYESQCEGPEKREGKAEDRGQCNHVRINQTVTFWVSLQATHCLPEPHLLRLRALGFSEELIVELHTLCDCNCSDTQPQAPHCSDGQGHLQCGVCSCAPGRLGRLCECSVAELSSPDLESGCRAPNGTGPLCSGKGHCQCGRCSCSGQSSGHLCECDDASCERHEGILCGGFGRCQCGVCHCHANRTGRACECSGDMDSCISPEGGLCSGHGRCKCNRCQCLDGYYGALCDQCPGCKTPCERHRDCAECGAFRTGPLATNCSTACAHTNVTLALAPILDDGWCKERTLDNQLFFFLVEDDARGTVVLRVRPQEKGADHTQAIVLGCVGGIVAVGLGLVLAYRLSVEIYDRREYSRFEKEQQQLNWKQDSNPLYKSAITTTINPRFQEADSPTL
Assay: Alpha4-Beta7 Assay (MadCAM/RPMI 8866 cell adhesion)
Type: cell-based
Settings: calcein labeled RPMI 8866 cells, MadCAM coated plates
Experimental: Alpha4-Beta7 Assay Protocol
Two weeks to one day prior to the assay, Nunc high-binding F96 Maxisorp immuno plates, #442404 or #439454, were coated with 25 ng/well (0.25 μg/ml) MadCAM in a volume of 100 μl/well. The plates were covered with sealer and wrapped in saran wrap followed by incubation in the refrigerator for at least 24 hours. The coating buffer employed was: 10 mM carbonate/bicarbonate buffer made up from: 0.8 g/L sodium carbonate and 1.55 g/L sodium bicarbonate adjusted to pH 9.6 with 1 N HCl.
Assay buffers consisted of the following: • Wash Buffer: 0.05% Tween 20 in PBS • Blocking Buffer: 1% Nonfat Dry Milk in PBS • Labeling Buffer: PBS • Cell Buffer: RPMI 1640 medium (no additives) • Binding Buffer: 1.5 mM CaCl2 • 0.5 mM MnCl2 • 50 mM TRIS-HCl; add NaOH dropwise to pH 7.5 • Bring to volume in H2O • Adjust to pH 7.5 • Dilution Buffer: 4% DMSO in Binding Buffer
Plates were washed 2× with wash buffer and then blocked at room temperature for at least 1 hour with Blocking Buffer. Sealed plates were sometimes blocked overnight in the refrigerator. Plates were then washed with PBS and hand blotted dry. Remaining liquid was aspirated from the wells.
Sufficient RPMI 8866 cells were removed from stock for assay (2×10^6 cells/ml×10 ml/plate×number of plates) and placed in a centrifuge tube. The tubes were filled to volume with PBS and were spun at 200×G for 8 minutes. The buffer was poured off and the cells were resuspended to 10×10^6/ml in PBS and a stock solution of calcein in DMSO (5 mg/mL) was added at 5 μl/ml of cell suspension. The suspension was incubated for 30 minutes at 37° C. in dark. The cells were then washed with PBS. The PBS was poured off and the cells resuspended in cell buffer at a concentration of 2×10^6 cells/mL for plating in the assay.
Stock solution of test compounds at 25× first dilution desired in 100% DMSO were prepared. First dilutions for the standard, as well as test compounds, were 1:25 into straight Binding Buffer, while the remaining serial dilutions were into Dilution Buffer (Binding Buffer/4% DMSO). Stock concentrations and dilutions of compounds for screening were determined by anticipated activity.
For the assay, 129 μl Binding Buffer was plated into first row of wells and 100 μl Dilution Buffer was plated into remaining wells. A 5.4 μl aliquot of each compound was pipetted into appropriate, labeled wells, in triplicate. The compounds were next diluted down the plate (34 μl+100 μl=>4-fold dilution). For controls, 100 μl of Dilution Buffer+100 μl Cell Buffer were plated into the nonspecific background wells (no cells, no compound) and 100 μl Dilution Buffer+100 μl cells were plated into the total binding wells (no compound=100% binding). Labeled cells at 2×10^6 cells/ml, 100μl/well (=2×10^5 cells/well) were added to each well containing compound. The plates were sealed and incubated in the dark for 45 minutes at room temperature. Following incubation, unbound cells were removed by adding 150 μl PBS/well. The plates were inverted, blotted onto paper towels and washed by gently adding 200 μl PBS to wells and blotting again. Remaining buffer was carefully aspirated from the wells. A final 100 μl PBS was added to each well.
The plates were then read for fluorescence intensity on a Cytofluor 2300 (Millipore) fluorecence measurement system (excitation=485 nm, emission=530 nm). IC50s of each compound were determined by linear regression analysis.

IC50 [µM]	Structure (SMILES)
< 10	Cc1cccc(Cl)c1C(=O)N[C@@H](Cc1ccc(-c2cccn(C)c2=O)cc1)C(=O)O [Example 30, N-[(2-chloro-6-methylphenyl)carbonyl]-4-(1-methyl-2-oxo-3-pyridinyl)-L-phenylalanine]
< 10	Cc1ccn(C)c(=O)c1-c1ccc(C[C@H](NC(=O)c2c(Cl)cccc2Cl)C(=O)O)cc1 [Example 31, N-[(2,6-dichlorophenyl)carbonyl]-4-(1,4-dimethyl-2-oxo-3-pyridinyl)-L-phenylalanine]
< 10	Cc1cccc(Cl)c1C(=O)N[C@@H](Cc1ccc(-c2c(C)ccn(C)c2=O)cc1)C(=O)O [Example 32, N-[(2-chloro-6-methylphenyl)carbonyl]-4-(1,4-dimethyl-2-oxo-3-pyridinyl)-L-phenylalanine]
< 0.1	Cc1cc(C(F)(F)F)c(-c2ccc(C[C@H](NC(=O)c3c(Cl)cccc3Cl)C(=O)O)cc2)c(=O)n1C [Example 33, N-[(2,6-dichlorophenyl)carbonyl]-4-[1,6-dimethyl-4-(trifluoromethyl)-2-oxo-3-pyridinyl]-L-phenylalanine]
< 10	CCc1cccc(C)c1C(=O)N[C@@H](Cc1ccc(-c2c(C(F)(F)F)cc(C)n(C)c2=O)cc1)C(=O)O [Example 34, N-[(2-ethyl-6-methylphenyl)carbonyl]-4-[1,6-dimethyl-4-(trifluoromethyl)-2-oxo-3-pyridinyl]-L-phenylalanine]
< 5	Cc1cccc(C(C)C)c1C(=O)N[C@@H](Cc1ccc(-c2c(C(F)(F)F)cc(C)n(C)c2=O)cc1)C(=O)O [Example 35, N-[(2-(1-methylethyl)-6-methylphenyl)carbonyl]-4-[1,6-dimethyl-4-(trifluoromethyl)-2-oxo-3-pyridinyl]-L-phenylalanine]
< 10	Cc1cccc(Cl)c1C(=O)N[C@@H](Cc1ccc(-c2c(C(F)(F)F)cc(C)n(C)c2=O)cc1)C(=O)O [Example 36, N-[(2-chloro-6-methylphenyl)carbonyl]-4-[1,6-dimethyl-4-(trifluoromethyl)-2-oxo-3-pyridinyl]-L-phenylalanine]
< 10	COCCC1(C(=O)N[C@@H](Cc2ccc(-c3c(C(F)(F)F)cc(C)n(C)c3=O)cc2)C(=O)O)CCCC1 [Example 37, N-[[1-(2-methoxyethyl)cyclopentyl]carbonyl]-4-[1,6-dimethyl-4-(trifluoromethyl)-2-oxo-3-pyridinyl]-L-phenylalanine]
